The source of these data is ChEMBL document CHEMBL1134914, “Acyl dipeptides as reversible caspase inhibitors. Part 1: initial lead optimization” (Bioorg Med Chem Lett, 2002).

The target in experiment [1] is T1, Caspase-7 (Homo sapiens, UniProt P55210).
T1 sequence (P55210 whole entry): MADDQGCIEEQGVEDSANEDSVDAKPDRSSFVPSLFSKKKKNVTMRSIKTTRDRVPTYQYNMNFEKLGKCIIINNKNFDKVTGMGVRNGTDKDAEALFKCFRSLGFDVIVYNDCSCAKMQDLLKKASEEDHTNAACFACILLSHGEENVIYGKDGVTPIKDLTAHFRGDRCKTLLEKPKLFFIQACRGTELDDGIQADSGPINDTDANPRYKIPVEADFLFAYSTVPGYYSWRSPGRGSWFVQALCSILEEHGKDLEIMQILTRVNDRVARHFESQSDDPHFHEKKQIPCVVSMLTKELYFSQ
In words: Inhibitory concentration against caspase-7.

Experiment [2] has as its target T2, Caspase-6 (Homo sapiens, UniProt P55212).
T2 sequence (P55212 whole entry): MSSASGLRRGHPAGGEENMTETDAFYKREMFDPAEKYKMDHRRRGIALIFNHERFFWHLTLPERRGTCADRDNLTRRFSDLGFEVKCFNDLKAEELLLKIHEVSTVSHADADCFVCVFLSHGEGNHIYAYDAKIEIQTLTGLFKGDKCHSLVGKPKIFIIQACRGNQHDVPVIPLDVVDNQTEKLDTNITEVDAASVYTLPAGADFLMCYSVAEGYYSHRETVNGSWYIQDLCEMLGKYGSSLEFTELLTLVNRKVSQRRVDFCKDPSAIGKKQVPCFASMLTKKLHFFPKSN
In words: Inhibitory concentration required against caspase-6.

In experiment [3] the target is T3, Caspase-8 (Homo sapiens, UniProt Q14790). In words: Inhibitory concentration against caspase-8.
The target in experiment [4] is T4, Caspase-3 (Homo sapiens, UniProt P42574).
T4 sequence (P42574 whole entry): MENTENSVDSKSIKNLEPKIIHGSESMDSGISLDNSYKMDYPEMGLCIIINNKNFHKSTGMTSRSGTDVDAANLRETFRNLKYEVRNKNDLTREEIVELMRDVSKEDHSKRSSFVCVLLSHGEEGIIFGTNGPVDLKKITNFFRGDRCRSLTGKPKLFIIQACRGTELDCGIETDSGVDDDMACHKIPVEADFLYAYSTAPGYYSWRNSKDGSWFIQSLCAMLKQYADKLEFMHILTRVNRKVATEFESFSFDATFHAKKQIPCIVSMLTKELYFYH
In words: Inhibitory concentration against caspase-3.

Experiment [5] concerns the target Caspase-1 (Mus musculus) (UniProt P29452).
The target in experiment [6] is T1, Caspase-7. In words: Inhibitory concentration of compound required against Caspase-7 compared to acylated dipeptides.
Experiment [7] has as its target T4, Caspase-3. In words: Inhibitory concentration of compound required against Caspase-3 compared to acylated dipeptides.
The target in experiment [8] is T2, Caspase-6. In words: Inhibitory concentration of compound required against Caspase-6 compared to acylated dipeptides.
For experiment [9], the target named is T3, Caspase-8. In words: Inhibitory concentration of compound required against Caspase-8 compared to acylated dipeptides.
Experiment [10] has as its target Caspase-1 (Mus musculus) (UniProt P29452). In words: Inhibitory concentration of compound required against Caspase-1 compared to acylated dipeptides.

T3 sequence (Q14790 217-374 limits assumed): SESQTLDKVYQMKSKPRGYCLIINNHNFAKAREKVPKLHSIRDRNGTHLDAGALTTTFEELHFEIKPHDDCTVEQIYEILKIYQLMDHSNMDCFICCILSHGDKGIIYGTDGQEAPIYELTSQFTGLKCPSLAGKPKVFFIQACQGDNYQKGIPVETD
T3 sequence (Q14790 385-479 limits assumed): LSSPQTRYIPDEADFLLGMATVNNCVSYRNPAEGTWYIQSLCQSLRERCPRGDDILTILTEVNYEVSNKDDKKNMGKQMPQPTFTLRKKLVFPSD
Sequence of Caspase-1 (Mus musculus) (P29452 whole entry, looked up): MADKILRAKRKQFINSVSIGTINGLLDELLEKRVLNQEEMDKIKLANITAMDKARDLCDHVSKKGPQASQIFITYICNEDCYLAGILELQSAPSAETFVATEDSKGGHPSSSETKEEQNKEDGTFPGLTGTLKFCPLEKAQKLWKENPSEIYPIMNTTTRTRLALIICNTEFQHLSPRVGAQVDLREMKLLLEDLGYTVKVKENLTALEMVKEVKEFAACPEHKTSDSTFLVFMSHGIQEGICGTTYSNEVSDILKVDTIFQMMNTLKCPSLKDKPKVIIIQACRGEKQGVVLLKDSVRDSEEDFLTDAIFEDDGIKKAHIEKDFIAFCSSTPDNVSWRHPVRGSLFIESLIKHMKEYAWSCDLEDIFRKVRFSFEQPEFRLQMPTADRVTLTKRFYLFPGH

In general, IC50 refers to the concentration at which inhibition is half-maximal. `COc1ccc(OCC(=O)N[C@@H](CC(C)C)C(=O)N[C@H]2CC(=O)OC2O)c2ccccc12` (some centres undefined): the IC50 in [1] is 4.08 µM; in experiment [2], 22.6 µM; in experiment [3], 1.45 µM; in experiment [4], 0.263 µM; in [5], 0.831 µM.

In the case of `CC(C)C[C@H](NC(=O)COc1ccc2ccccc2c1)C(=O)N[C@H]1CC(=O)OC1O` (some centres undefined), the IC50 in [1] is 8.87 µM; in experiment [6], 8.87 µM; in [7], 0.94 µM; in experiment [2], 18.6 µM; in experiment [8], 18.6 µM; in [9], 10 µM. The 50% inhibitory concentration (IC50) in experiment [3] was more than 10 µM; in experiment [4] it was 0.944 µM; in experiment [5], 10 µM; in experiment [10], 10 µM.

Consider `CC(C)C[C@H](NC(=O)COc1c(Cl)cc(Cl)c2ccccc12)C(=O)N[C@H]1CC(=O)OC1O` (some centres undefined), for which the IC50 in experiment [1] came to 3.61 µM; in [2] it was 21.4 µM; in experiment [3], 3.04 µM; in [4] it was 0.357 µM; in experiment [5], 0.141 µM.

As to `CC(C)C[C@H](NC(=O)[C@H](CCC(=O)O)NC(=O)OCc1ccccc1)C(=O)N[C@H]1CC(=O)OC1O` (some centres undefined), the IC50 was 0.01 µM in experiment [6], 0.0023 µM in experiment [7], 0.03 µM in [9] and 0.0065 µM in [10].

Consider `CC(C)C[C@H](NC(=O)COc1ccc(OCc2ccccc2)cc1)C(=O)N[C@H]1CC(=O)OC1O` (some centres undefined), for which the IC50 in [1] worked out at 7.25 µM; in [2], 33.4 µM; in experiment [3], 8.6 µM; in experiment [4] it was 0.57 µM; in [5], 2.51 µM.

For `CC(C)C[C@H](NC(=O)COc1ccc(-c2ccccc2)cc1)C(=O)N[C@H]1CC(=O)OC1O` (some centres undefined), the IC50 amounted to 12 µM in [1]; 20.5 µM in experiment [2]; 7.53 µM in [3]; 0.763 µM in experiment [4]; 1.9 µM in experiment [5].

`CC(C)C[C@H](NC(=O)CCOc1ccccc1)C(=O)N[C@H]1CC(=O)OC1O` (some centres undefined): the IC50 is 6.04 µM in [1]; more than 50 µM in [2]; more than 10 µM in [3]; 0.419 µM in experiment [4]; 9.42 µM in experiment [5].

Consider `CC(C)C[C@H](NC(=O)[C@H](Cc1ccccc1)NC(=O)OCc1ccccc1)C(=O)N[C@H]1CC(=O)OC1O` (some centres undefined), for which the IC50 in experiment [6] was 0.68 µM; in experiment [7], 0.137 µM; in [8], 2.53 µM; in [9] it was 8.7 µM; in experiment [10] it was 0.043 µM.

For `CC(C)C[C@H](NC(=O)COc1ccc(Oc2ccccc2)cc1)C(=O)N[C@H]1CC(=O)OC1O` (some centres undefined), the IC50 turned out to be 6.82 µM in [1]; 21.2 µM in experiment [2]; 9.28 µM in experiment [3]; 0.545 µM in [4]; 2.21 µM in experiment [5].

As to `Cc1ccc2ccccc2c1OCC(=O)N[C@@H](CC(C)C)C(=O)N[C@H]1CC(=O)OC1O` (some centres undefined), the IC50 in [1] was found to be 4.16 µM; in experiment [2], 32.4 µM; in experiment [3], 4.14 µM; in experiment [4] it was 0.375 µM; in experiment [5] it was 0.843 µM.

For `CC(C)C[C@H](NC(=O)COc1cccc2ncccc12)C(=O)N[C@H]1CC(=O)OC1O` (some centres undefined), the IC50 in [1] was 3.85 µM; in [2], more than 50 µM; in experiment [3], 4.02 µM; in experiment [4], 0.412 µM; in experiment [5], 5.25 µM.

With `CC(C)C[C@H](NC(=O)CSc1cccc2ccccc12)C(=O)N[C@H]1CC(=O)OC1O` (some centres undefined), the IC50 turned out to be 1.74 µM in [1]; 1.43 µM in [2]; 7.42 µM in experiment [3]; 0.195 µM in experiment [4]; 2.75 µM in experiment [5].

Regarding `CC(C)C[C@@H](NC(=O)OCc1ccccc1)C(=O)C[C@H]1CC(=O)OC1O` (some centres undefined), the IC50 was 21.9 µM in experiment [1]; 14 µM in [2]; 50 µM in experiment [3]; 3.47 µM in [4]; 18.8 µM in experiment [5].

Turning to `Cc1ccc(OCC(=O)N[C@@H](CC(C)C)C(=O)N[C@H]2CC(=O)OC2O)c(C23CC4CC(CC(C4)C2)C3)c1` (some centres undefined), the IC50 in experiment [1] came to 2.79 µM; in experiment [2] it was 5.86 µM; in experiment [3], 3.87 µM; in [4] it was 0.474 µM; in [5], 1.43 µM.

Turning to `CC(=O)N[C@@H](C(=O)O)C(=O)N[C@@H](CCC(=O)O)C(=O)N[C@H](C(=O)N[C@H]1CC(=O)OC1O)C(C)C` (some centres undefined), the IC50 in experiment [6] is 0.01 µM; in experiment [7], 0.0035 µM; in [8], 0.01 µM; in experiment [9], 0.08 µM; in experiment [10] it was 0.05 µM.

Consider `CC(C)C[C@H](NC(=O)CSc1ccc2ccccc2c1)C(=O)N[C@H]1CC(=O)OC1O` (some centres undefined), for which the IC50 is 2.52 µM in [1]; 3.16 µM in experiment [2]; 11 µM in [3]; 0.269 µM in experiment [4]; 0.792 µM in [5].

Regarding `CC(C)C[C@H](NC(=O)COc1ccc(C23CC4CC(CC(C4)C2)C3)cc1)C(=O)N[C@H]1CC(=O)OC1O` (some centres undefined), the IC50 in experiment [1] was 8.24 µM; in experiment [2], 32.5 µM; in experiment [3], 4.35 µM; in experiment [4] it was 0.528 µM; in experiment [5] it was 1.83 µM.

For the compound `CC(C)C[C@H](NC(=O)Cc1ccc(-c2ccccc2)cc1)C(=O)N[C@H]1CC(=O)OC1O` (some centres undefined), the IC50 in experiment [6] was more than 10 µM; in experiment [2], more than 10 µM; in experiment [3], more than 10 µM; in [4], 5.06 µM; in experiment [5], 7.43 µM.

In the case of `CC(C)C[C@H](NC(=O)COc1cccc(-c2ccccc2)c1)C(=O)N[C@H]1CC(=O)OC1O` (some centres undefined), the IC50 in [1] was 3.75 µM; in [2], 14.5 µM; in experiment [3] it was 3.86 µM; in experiment [4] it was 0.311 µM; in [5], 1.1 µM.
